target: full length USP7 (Homo sapiens (Human), UniProt Q93009); test: Ub-AMC enzymatic assay with full-length USP7; format: biochemical; conditions: Table 1; 6 hours pre-incubation, Ub-AMC; read-out: IC50 (nM), USP7 activity in USP7 assay
Experimental: Both constructs were overexpressed in E. coli BL21 (DE3). Cells were grown at 37° C. to an OD of 0.9, cooled to 16° C., induced with 500 μM isopropyl-1-thio-D-galactopyranoside (IPTG), incubated overnight at 16° C., collected by centrifugation, and stored at −80° C. Cell pellets were sonicated in lysis buffer (25 mM Tris pH 8, 1 M NaCl, and 10 mM BME) supplemented with 10 μg/ml phenylmethanesulfonylfluoride (PMSF) and the resulting lysate was centrifuged at 30,000×g for 40 min. Ni-NTA beads (Qiagen) were mixed with lysate supernatant for 2 hours, and washed with lysis buffer supplemented with 25 mM imidazole. The bound protein was eluted with lysis buffer supplemented with 300 mM imidazole. The sample was then concentrated to 1 ml (30 kDa concentrator; Amicon Ultra, Millipore), and run on a Superdex 200 (GE healthcare) in buffer containing 25 mM HEPES pH 7.5, 200 mM NaCl, and 1 mM DTT. Fractions were pooled, concentrated and frozen at −80° C.
Full length USP7 was tested for its activity in Ubiquitin-AMC assay in presence or absence of inhibitors. USP7 (5 nM) was pre-incubated for 6 hours at room temperature with different concentrations of inhibitors or DMSO as a control in 50 mM HEPES pH 7.5, 0.5 mM EDTA, 11 μM ovalbumin, and 5 mM DTT. Ubiquitin-AMC (Boston Biochem) was then added to a final concentration of 500 nM. The initial rate of the reaction was measured by collecting fluorescence data at one minute intervals over 30-minute period using a Clariostar fluorescence plate reader at excitation and emission wavelength of 345 and 445 nm respectively. The calculated initial rate values were plotted against inhibitor concentrations to determine IC50s. All the experimental data were plotted using Prism GraphPad. All assays for each compound were performed at least twice for each compound.

Chain of full length USP7 (Q93009 whole entry): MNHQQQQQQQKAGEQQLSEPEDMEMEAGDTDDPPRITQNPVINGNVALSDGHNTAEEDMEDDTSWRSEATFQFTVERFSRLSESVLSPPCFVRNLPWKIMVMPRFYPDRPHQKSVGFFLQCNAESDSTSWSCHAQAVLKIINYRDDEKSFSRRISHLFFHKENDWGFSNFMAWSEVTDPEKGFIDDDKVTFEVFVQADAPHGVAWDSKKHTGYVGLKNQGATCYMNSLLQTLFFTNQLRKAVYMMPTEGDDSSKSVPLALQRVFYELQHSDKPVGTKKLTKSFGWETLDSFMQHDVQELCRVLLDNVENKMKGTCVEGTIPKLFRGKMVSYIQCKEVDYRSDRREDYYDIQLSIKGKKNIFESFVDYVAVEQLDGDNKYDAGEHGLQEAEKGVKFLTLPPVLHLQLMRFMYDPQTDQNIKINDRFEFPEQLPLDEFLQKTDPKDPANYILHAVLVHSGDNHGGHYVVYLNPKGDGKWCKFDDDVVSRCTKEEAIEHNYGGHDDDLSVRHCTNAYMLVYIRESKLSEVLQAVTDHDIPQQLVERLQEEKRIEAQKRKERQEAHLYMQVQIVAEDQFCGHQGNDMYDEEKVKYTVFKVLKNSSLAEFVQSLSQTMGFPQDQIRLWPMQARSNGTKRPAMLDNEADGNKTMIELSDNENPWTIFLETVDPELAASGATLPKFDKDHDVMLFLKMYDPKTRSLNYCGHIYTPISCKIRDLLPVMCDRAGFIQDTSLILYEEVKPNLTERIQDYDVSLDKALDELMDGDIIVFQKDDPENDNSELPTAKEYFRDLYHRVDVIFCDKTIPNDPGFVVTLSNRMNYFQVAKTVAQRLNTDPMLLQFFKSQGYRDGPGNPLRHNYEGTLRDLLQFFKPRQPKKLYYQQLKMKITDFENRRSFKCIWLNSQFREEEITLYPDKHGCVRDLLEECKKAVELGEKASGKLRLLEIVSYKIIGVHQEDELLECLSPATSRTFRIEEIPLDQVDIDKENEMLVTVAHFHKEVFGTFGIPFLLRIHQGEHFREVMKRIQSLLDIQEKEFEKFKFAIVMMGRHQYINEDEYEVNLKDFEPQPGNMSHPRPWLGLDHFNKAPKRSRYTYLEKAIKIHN

Compound | IC50 [nM]
CN(C)CCC(=O)Nc1ccc2c(=O)n(CC3(O)CCN(C(=O)CCCCNC(=O)c4ccc5c(Cl)c6c(nc5c4)CCCC6)CC3)cnc2c1 | 20 to 100
O=C(CCN1CCOCC1)Nc1ccc2c(=O)n(CC3(O)CCN(C(=O)CCCCNC(=O)c4ccc5c(Cl)c6c(nc5c4)CCCC6)CC3)cnc2c1 | 100 to 1000
O=C(CCn1ccnc1)Nc1ccc2c(=O)n(CC3(O)CCN(C(=O)CCCCNC(=O)c4ccc5c(Cl)c6c(nc5c4)CCCC6)CC3)cnc2c1 | 20 to 100
CN1CCN(CCC(=O)Nc2ccc3c(=O)n(CC4(O)CCN(C(=O)C(CCCNC(=O)c5ccc6c(Cl)c7c(nc6c5)CCCC7)Cc5ccccc5)CC4)cnc3c2)CC1 (centres unmarked) | < 20
CN1CCN(CCC(=O)Nc2ccc3c(=O)n(CC4(O)CCN(C(=O)CNC(=O)c5ccc6c(Cl)c7c(nc6c5)CCCC7)CC4)cnc3c2)CC1 | > 1000
CN1CCN(CCC(=O)Nc2ccc3c(=O)n(CC4(O)CCN(C(=O)CCNC(=O)c5ccc6c(Cl)c7c(nc6c5)CCCC7)CC4)cnc3c2)CC1 | 100 to 1000
CN1CCN(CCC(=O)Nc2ccc3c(=O)n(CC4(O)CCN(C(=O)CCCNC(=O)c5ccc6c(Cl)c7c(nc6c5)CCCC7)CC4)cnc3c2)CC1 | 20 to 100
CN1CCN(CCC(=O)Nc2ccc3c(=O)n(CC4(O)CCN(C(=O)CCCCCNC(=O)c5ccc6nc7c(c(Cl)c6c5)CCCC7)CC4)cnc3c2)CC1 | 20 to 100
CN1CCN(CCC(=O)Nc2ccc3c(=O)n(CC4(O)CCN(C(=O)C(CCNC(=O)c5ccc6c(Cl)c7c(nc6c5)CCCC7)Cc5ccccc5)CC4)cnc3c2)CC1 (centres unmarked) | < 20
CN1CCN(CCC(=O)Nc2ccc3c(=O)n(CC4(O)CCN(C(=O)C(CCCNC(=O)c5ccc6c(Cl)c7c(nc6c5)CCCCC7)Cc5ccccc5)CC4)cnc3c2)CC1 (centres unmarked) | < 20
CN1CCN(CCC(=O)Nc2ccc3c(=O)n(CC4(O)CCN(C(=O)C(CCCNC(=O)c5ccc6c(Cl)c7c(nc6c5)CCC7)Cc5ccccc5)CC4)cnc3c2)CC1 (centres unmarked) | < 20
CN1CCN(CCC(=O)Nc2ccc3c(=O)n(CC4(O)CCN(C(=O)C(CCCNC(=O)C5(C#N)CC5)Cc5ccccc5)CC4)cnc3c2)CC1 (centres unmarked) | 100 to 1000
CN1CCN(CCC(=O)Nc2ccc3c(=O)n(CC4(O)CCN(C(=O)C(CCCNC(=O)c5cc(C(=O)CCl)cn5C)Cc5ccccc5)CC4)cnc3c2)CC1 (centres unmarked) | > 1000
CN1CCN(CCC(=O)Nc2ccc3c(=O)n(CC4(O)CCN(C(=O)[C@H](Cc5ccccc5)NC(=O)CNC(=O)c5ccc6c(Cl)c7c(nc6c5)CCCC7)CC4)cnc3c2)CC1 | < 20
CN1CCN(CCC(=O)Nc2ccc3c(=O)n(CC4(O)CCN(C(=O)[C@H](Cc5ccccc5)NC(=O)CCNC(=O)c5ccc6c(Cl)c7c(nc6c5)CCCC7)CC4)cnc3c2)CC1 | < 20
CN1CCN(CCC(=O)Nc2ccc3c(=O)n(CC4CCN(C(=O)C(CCCNC(=O)c5ccc6c(Cl)c7c(nc6c5)CCCC7)Cc5ccccc5)CC4)cnc3c2)CC1 (centres unmarked) | > 1000
CN1CCN(CCC(=O)Nc2ccc3c(=O)n(CC4(O)CCN(C(=O)[C@H](Cc5ccccc5)NC(=O)CN(C)C(=O)c5ccc6c(Cl)c7c(nc6c5)CCCC7)CC4)cnc3c2)CC1 | < 20
O=C(CCN1CCOCC1)Nc1ccc2c(=O)n(CC3(O)CCN(C(=O)[C@H](Cc4c[nH]cn4)NC(=O)CNC(=O)c4ccc5c(Cl)c6c(nc5c4)CCCC6)CC3)cnc2c1 | < 20
O=C(CCN1CCOCC1)Nc1ccc2c(=O)n(CC3(O)CCN(C(=O)[C@H](CC4CCCCC4)NC(=O)CNC(=O)c4ccc5c(Cl)c6c(nc5c4)CCCC6)CC3)cnc2c1 | < 20
O=C(CCN1CCOCC1)Nc1ccc2c(=O)n(CC3(O)CCN(C(=O)[C@H](Cc4cscn4)NC(=O)CNC(=O)c4ccc5c(Cl)c6c(nc5c4)CCCC6)CC3)cnc2c1 | < 20
O=C(CCN1CCOCC1)Nc1ccc2c(=O)n(CC3(O)CCN(C(=O)[C@H](Cc4cc(F)cc(F)c4)NC(=O)CNC(=O)c4ccc5c(Cl)c6c(nc5c4)CCCC6)CC3)cnc2c1 | < 20
O=C(NCCC[C@@H](Cc1ccccc1)C(=O)N1CCC(O)(Cn2cnc3cc(N4CCOCC4)ccc3c2=O)CC1)c1ccc2c(Cl)c3c(nc2c1)CCCC3 | 100 to 1000

Results, then the compound that gave them:

IC50 [nM] | Compound
20 to 100 | CN1CCN(CCC(=O)Nc2ccc3c(=O)n(CC4(O)CCN(C(=O)C(CCCNC(=O)c5ccc6c(c5)CCCN6C(=O)CCl)Cc5ccccc5)CC4)cnc3c2)CC1 (centres unmarked)
20 to 100 | C=CS(=O)(=O)N1CCCc2cc(C(=O)NCCCC(Cc3ccccc3)C(=O)N3CCC(O)(Cn4cnc5cc(NC(=O)CCN6CCN(C)CC6)ccc5c4=O)CC3)ccc21 (centres unmarked)
> 1000 | CN1CCN(CCC(=O)Nc2ccc3c(=O)n(CC4(O)CCN(C(=O)C(CCCNC(=O)c5cnccc5Cl)Cc5ccccc5)CC4)cnc3c2)CC1 (centres unmarked)
> 1000 | O=C(CCN1CCOCC1)Nc1ccc2c(=O)n(CC3(O)CCN(C(=O)[C@@H](CCCNC(=O)c4ccc(/C=C/C(=O)N5CCCCC5)nc4)Cc4ccccc4)CC3)cnc2c1
> 1000 | CC(C)NC(=O)/C=C/c1ccc(C(=O)NCCC[C@@H](Cc2ccccc2)C(=O)N2CCC(O)(Cn3cnc4cc(NC(=O)CCN5CCOCC5)ccc4c3=O)CC2)cn1
> 1000 | CN(C)C(=O)/C=C/c1ccc(C(=O)NCCC[C@@H](Cc2ccccc2)C(=O)N2CCC(O)(Cn3cnc4cc(NC(=O)CCN5CCOCC5)ccc4c3=O)CC2)cn1

same assay, conditions: Table 2; 6 hours pre-incubation, Ub-AMC; read-out: IC50 (μM), USP7 activity in USP7 assay

Compound | IC50 [nM]
O=C(CCN1CCN(C(=O)c2ccc3c(Cl)c4c(nc3c2)CCCC4)CC1)N1CCC(O)(Cn2cnc3cc(Cl)ccc3c2=O)CC1 | 100 to 1000
O=C(CN1CCN(C(=O)c2ccc3c(Cl)c4c(nc3c2)CCCC4)CC1)N1CCC(O)(Cn2cnc3cc(Cl)ccc3c2=O)CC1 | 20 to 100
C#CCNCCCC(Cc1ccccc1)C(=O)N1CCC(O)(Cn2cnc3cc(NC(=O)CCN4CCN(C)CC4)ccc3c2=O)CC1 (centres unmarked) | 20 to 100
CN1CCN(CCC(=O)Nc2ccc3c(=O)n(CC4(O)CCN(C(=O)C(CCCNC(=O)c5ccc(/C=C6\CCCCC6=O)cc5)Cc5ccccc5)CC4)cnc3c2)CC1 (centres unmarked) | 20 to 100

Other lines, results leading:

IC50 [nM] | Compound
20 to 100 | C=CS(=O)(=O)NCCCC(Cc1ccccc1)C(=O)N1CCC(O)(Cn2cnc3cc(NC(=O)CCN4CCN(C)CC4)ccc3c2=O)CC1 (centres unmarked)
< 20 | C=CC(=O)NCCCC(Cc1ccccc1)C(=O)N1CCC(O)(Cn2cnc3cc(NC(=O)CCN4CCN(C)CC4)ccc3c2=O)CC1 (centres unmarked)

same assay, conditions: Table 3; 6 hours pre-incubation, Ub-AMC; read-out: IC50 (μM), USP7 activity in USP7 assay

Compound | IC50 [nM]
O=C(NCCCC(Cc1ccccc1)C(=O)N1CCC(O)(Cn2cnc3cc(OCCN4CCOCC4)ccc3c2=O)CC1)c1ccc2c(Cl)c3c(nc2c1)CCCC3 (centres unmarked) | 20 to 100
CN1CCN(CCC(=O)Nc2ccc3c(=O)n(CC4(O)CCN(C(=O)[C@@H](Cc5ccccc5)NC(=O)CNC(=O)c5ccc6c(Cl)c7c(nc6c5)CCCC7)CC4)cnc3c2)CC1 | 20 to 100
CN1CCN(CCC(=O)Nc2ccc3c(=O)n(CC4(O)CCN(C(=O)C(CCCNC(=O)c5ccc6c(Cl)cc(C7CCCCC7)nc6c5)Cc5ccccc5)CC4)cnc3c2)CC1 (centres unmarked) | 20 to 100
CN1CCN(CCC(=O)Nc2ccc3c(=O)n(CC4(O)CCN(C(=O)C(CCCNC(=O)c5ccc6c(Cl)cc(-c7ccc(F)cc7)nc6c5)Cc5ccccc5)CC4)cnc3c2)CC1 (centres unmarked) | 20 to 100
CN1CCN(CCC(=O)Nc2ccc3c(=O)n(CC4(O)CCN(C(=O)C(CCCNC(=O)c5ccc6c(Cl)c7c(nc6c5)CCCC7)c5ccccc5)CC4)cnc3c2)CC1 (centres unmarked) | > 1000
COc1cccc(CC(CCCNC(=O)c2ccc3c(Cl)c4c(nc3c2)CCCC4)C(=O)N2CCC(O)(Cn3cnc4cc(NC(=O)CCN5CCN(C)CC5)ccc4c3=O)CC2)c1 (centres unmarked) | > 1000

Continued, values first:

IC50 [nM] | Compound
20 to 100 | O=C(CCN1CCOCC1)Nc1ccc2c(=O)n(CC3(O)CCN(C(=O)[C@H](Cc4ccccc4)NC(=O)COc4cccc5c(Cl)c6c(nc45)CCCC6)CC3)cnc2c1
100 to 1000 | O=C(CCN1CCOCC1)Nc1ccc2c(=O)n(CC3(O)CCN(C(=O)C(CCCNC(=O)c4ccc5c(Cl)cc(C(F)(F)F)nc5c4)Cc4ccccc4)CC3)cnc2c1 (centres unmarked)
20 to 100 | CN1CCN(CCC(=O)Nc2ccc3c(=O)n(CC4(O)CCN(C(=O)[C@@H](Cc5ccccc5)NC(=O)CNC(=O)c5ccc6c(Cl)ccnc6c5)CC4)cnc3c2)CC1
> 1000 | O=C(CCN1CCOCC1)Nc1ccc2c(=O)n(CC3(O)CCN(C(=O)[C@H](Cc4ccccc4)n4ccnn4)CC3)cnc2c1
> 1000 | Cc1cc(Cl)c2ccc(C(=O)NCCCC(Cc3ccccc3)C(=O)N3CCC(O)(Cn4cnc5cc(NC(=O)CCN6CCOCC6)ccc5c4=O)CC3)cc2n1 (centres unmarked)
> 1000 | O=C(CCN1CCOCC1)Nc1ccc2c(=O)n(CC3(O)CCN(C(=O)C(CCCNC(=O)c4ccc5c(O)ccnc5c4)Cc4ccccc4)CC3)cnc2c1 (centres unmarked)
> 1000 | C=CC(=O)Nc1ccccc1-c1cn([C@@H](Cc2ccccc2)C(=O)N2CCC(O)(Cn3cnc4cc(NC(=O)CCN5CCOCC5)ccc4c3=O)CC2)nn1
> 1000 | C=CC(=O)Nc1cccc(-c2cn([C@@H](Cc3ccccc3)C(=O)N3CCC(O)(Cn4cnc5cc(NC(=O)CCN6CCOCC6)ccc5c4=O)CC3)nn2)c1
20 to 100 | CN1CCN(CCC(=O)Nc2ccc3c(=O)n(CC4(O)CCN(C(=O)C(CCCNC(=O)c5ccc6c(Cl)cc(-c7cscn7)nc6c5)Cc5ccccc5)CC4)cnc3c2)CC1 (centres unmarked)
100 to 1000 | CN1CCN(CCC(=O)Nc2ccc3c(=O)n(CC4(O)CCN(C(=O)C(CCCNC(=O)c5ccc6c(Cl)cc(-c7ccccc7)nc6c5)Cc5ccccc5)CC4)cnc3c2)CC1 (centres unmarked)
